How the values were obtained:
Hepatitis B Virus = test: Hepatitis B virus secretion from chronically HBV secreting HepG2.2.15 cells (preS1 immunoprecipitation / PCR); assay type: cell-based; conditions: 3 days of incubation, control = 100%
Protocol: The anti-hepatitis B virus activity and effect on cell viability of a number of different N-substituted-1,5-dideoxy-1,5-imino-D-glucitol compounds were assessed using an in vitro assay employing chronically hepatitis B virus secreting HepG2.2.15 cells. The method employed was essentially that described in Block et al. (1994) Proc. Natl. Acad. Sci. USA 91:2235-2239.

[1] = tested on: hepatitis B virus in HepG 2.2.15 (2.2.15) cells; test: IC-90 values used for the combostat method (earlier determinations); assay type: cell-based; conditions: HepG2.2.15, T. Block and G. Jacob, unpublished observation
Protocol: The anti-hepatitis B virus effect of (−)-2′-deoxy-3′-thiocytidine-5′-triphosphate (3TC) alone and in combination with N-nonyl-DNJ was determined according to Korba ((1996) Antiviral Research 29(1):49-51), using the “combostat” strategy (Comstat Program, Combostat Corp., Duluth, Minn.). The combostat method involves serially diluting the IC-90 of each compound. The IC-90 of N-nonyl-DNJ has been determined to be between 4 and 10 μg/ml (T. Block and G. Jacob, unpublished observation). The accepted IC-90 for 3TC in HepG 2.2.15 (2.2.15) cells is 300 nM to 500 nM (Doong et al. (1991) Proc. Natl. Acad. Sci. USA 88:8495-8499).

[2] = tested on: woodchuck hepatitis virus (WHV); test: Woodchuck model, N-nonyl-DNJ monotherapy, total HBV DNA and immune precipitated HBV DNA (IPDNA); assay type: in vivo
Protocol: Therefore, five groups of four animals each (all groups had both sexes, all but the control had two of each sex) were assigned to 0, 12.5, 25, 50, and 100 mg/kg/day with BID oral dosing. These were lab-reared wild animals. All animals were infected with woodchuck hepatitis virus (WHV) as neonates, and had been tested positive on serological tests for WHV surface antigen. Blood samples were drawn one week prior to dosing (−1 week), immediately before dosing (0 weeks), weekly during dosing (1, 2, 3, and 4 weeks), and after the end of dosing (5, 6, 8, and 10 weeks).
There are two measures of drug efficacy: reduction in total HBV DNA (measured by quantitative PCR), and reduction in HBV DNA from capsids with intact surface glycoproteins, which is the active form of the virus (measured by an ELISA-like immune precipitation assay followed by quantitative PCR).
Before models are fitted to the data, a log transform was applied because: 1) the variation in IPDNA increases with increasing IPDNA values; the log transformation gives values with a nearly constant variation, and 2) it is expected that drug effects will appear as a constant multiplier of the IPDNA level. Because there are zero values of IPDNA, a small value (about ½ of the smallest non-zero value) was added to all values before the log transform.
Two approaches were used to model the changes in slope to week with dose of N-nonyl-DNJ: a linear modeling approach and a nonlinear model. Both approaches assume that the (linear) rate of change of the Log(IPDNA) measure over the dosing period is the “right” measure to reflect the effect of the drug on the virus. Both approaches are fit in stages, and the first stage is common to both approaches. First, a simple straight line regression model is fit using weeks 0-4 to predict log(IPDNA+10) separately for each animal by run combination. In the second stage, the response variable is the slope fitted in the first stage.
For the linear approach, a model is fit with slope to week as the response where run is considered a block, dose has a significant effect (almost all of this effect is due to a slope to dose), and the relevant error for testing the effect of dose is the variation among animals treated alike (after the adjustment for the runs as blocks). This is similar to using the calibration data within each run to first adjust each run's data to a common virus DNA concentration; the difference is that here the data from the woodchucks are used for the run adjustment rather than only the calibration data.
For the nonlinear approach, a four parameter logistic model is fit with the slope to week as the response and the dose as the predictor. Again, run is considered a block, but because no run has all weeks, it is not possible to fully reflect the blocking in the nonlinear approach. […] The average maximum slope observed was 2.71 additional Log(IPDNA μg/mL)/week, or an increase of about 150%/week, the average minimum slope observed with N-nonyl-DNJ is 0.31 fewer Log(IPDNA μg/mL)/week), or about a decrease of about 25%/week. The slopes, the fitted model, the parameter estimates from the model, and the approximate standard errors for these parameters are all shown in FIG. 3. […] Whether in woodchucks or humans, the effective dose of both the N-alkyl-DNJ and nucleoside or nucleotide antiviral agent administered in combination therewith can be administered in two equal daily subdoses (i.e., B.I.D.).

[3] = woodchuck, weeks 0-4, with N-nonyl-DNJ

Structure (SMILES)	Relative amount of HBV secreted, as a % of control (Hepatitis B Virus; concentration [200])	Relative amount of HBV secreted, as a % of control (Hepatitis B Virus; concentration [1000])	IC90 [1]	effect on total HBV DNA measurements ([2]; woodchuck, 12.5-100 mg/kg/day BID oral, 4 weeks of dosing)	EC50, four parameter logistic model of slope of Log(IPDNA+10) to week versus dose ([2]; woodchuck, oral BID)	increase of IPDNA at average maximum slope ([2]; woodchuck, weeks 0-4)	average maximum slope observed, additional Log(IPDNA)/week ([2]; woodchuck, weeks 0-4, upper end of fitted model)	average minimum slope observed, fewer Log(IPDNA)/week [2, 3]	decrease of IPDNA at average minimum slope [2, 3]	approximate effective monotherapy dose ([2]; woodchucks)
CCCCN1C[C@H](O)[C@@H](O)[C@H](O)[C@H]1CO [NBDNJ, N-(n-butyl-)-1,5-dideoxy-1,5-imino-D-glucitol]	37.0 +/− 13 (n = 15) %	3.2 +/− 5 (n = 15) %	–	–	–	–	–	–	–	–
CCCCCCCCCN1C[C@H](O)[C@@H](O)[C@H](O)[C@H]1CO [Compound 1, N-(n-nonyl)-1,5-dideoxy-1,5-imino-D-glucitol]	–	–	4 to 10 µg/mL	no effect	7.88 mg/kg/BID dose	about 150 %/week	2.71 Log(IPDNA μg/mL)/week	0.31 Log(IPDNA μg/mL)/week	about 25 %/week	about 16 mg/kg/day
CCC(CC)CN1C[C@H](O)[C@@H](O)[C@H](O)[C@H]1CO [Compound 3, N-(2-ethylbutyl)-1,5-dideoxy-1,5-imino-D-glucitol]	45.0 +/− 30 (n = 3) %	5.0 +/− 20 (n = 3) %	–	–	–	–	–	–	–	–

Reference: patent US20050119310A1, “Use of n-substituted-1,5-dideoxy-1,5-imino-d-glucitol compounds for treating hepatitis virus infections” (priority 2000, published 2005)
